Test results reported in patent US20230295197A1, “STAT5 and STAT6 Degraders and Uses Thereof” (REGENTS OF THE UNIVERSITY OF MICHICAN, priority 2022, published 2023).
*1 amine or outer side, *2 acyl side, *3 side chain or, on linkers, in order; H or OH if unused. Where a SMILES comes first, the peptide text is derived from it. [ ]: non-standard residue; d: D form. The star is where a group is joined. Benzothienyl2CO(5-CF2PO3H2) = O=C(c1cc2cc(C(F)(F)P(=O)(O)O)ccc2s1)*; βAla(N-(4-Br-phenyl)) = O=C(CCN(c1ccc(Br)cc1)[*:1])[*:2]; NHBn(4-(4-Me-thiazol-5-yl)) = Cc1ncsc1-c1ccc(CN*)cc1; NH(CH2)9CO = O=C(CCCCCCCCCN[*:1])[*:2]; Hyp = O=C(O)[C@@H]1C[C@@H](O)CN1; Tle = CC(C)(C)[C@H](N)C(=O)O

target: T1, STAT6 (Homo sapiens, UniProt P42226); experiment: Immunoblotting (Western blot) analysis of STAT6 degradation efficiency of degraders in treated cells; assay type: cell-based; details: MOLM-16 cells, class symbols, read-out: DC50 S6 MOLM-16
T1 construct: endogenous in cells; host or cells: MOLM-16, KU-812, SKNO1, MB231, L1236
T1 sequence (P42226 1-847): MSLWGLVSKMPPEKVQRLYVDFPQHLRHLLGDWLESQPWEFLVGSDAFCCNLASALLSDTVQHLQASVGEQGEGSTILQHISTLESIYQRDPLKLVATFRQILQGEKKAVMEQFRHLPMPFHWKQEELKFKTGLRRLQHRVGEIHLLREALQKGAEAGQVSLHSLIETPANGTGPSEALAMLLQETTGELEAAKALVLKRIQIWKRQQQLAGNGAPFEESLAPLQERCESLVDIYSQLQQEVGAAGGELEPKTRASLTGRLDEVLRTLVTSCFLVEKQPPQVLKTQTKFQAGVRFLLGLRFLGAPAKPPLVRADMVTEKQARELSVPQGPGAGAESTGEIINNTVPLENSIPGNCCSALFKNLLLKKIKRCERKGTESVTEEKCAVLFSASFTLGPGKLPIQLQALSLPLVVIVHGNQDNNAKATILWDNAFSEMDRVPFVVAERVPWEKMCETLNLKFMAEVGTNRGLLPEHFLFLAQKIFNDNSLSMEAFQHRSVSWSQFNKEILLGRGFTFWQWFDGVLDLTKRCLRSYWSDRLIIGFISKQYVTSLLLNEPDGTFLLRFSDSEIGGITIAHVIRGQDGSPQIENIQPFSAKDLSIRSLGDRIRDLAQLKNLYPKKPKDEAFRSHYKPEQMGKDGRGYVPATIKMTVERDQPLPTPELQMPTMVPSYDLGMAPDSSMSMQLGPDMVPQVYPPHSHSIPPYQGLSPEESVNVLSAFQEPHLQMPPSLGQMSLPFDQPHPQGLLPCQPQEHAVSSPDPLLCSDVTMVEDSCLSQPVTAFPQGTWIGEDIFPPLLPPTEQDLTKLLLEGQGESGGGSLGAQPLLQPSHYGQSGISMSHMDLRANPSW
Outline: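 Treatment of cells with degraders at stated concentrations and exposure times comes first. Lysates are then equalised for total protein by BCA, and the proteins are separated, transferred and immunostained for STAT6 or STAT5 alongside GAPDH. Signal is quantified from infrared fluorescence.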

| SMILES | DC50 |
| --- | --- |
| CC(C)(C)[C@H](NC(=O)c1cc2cc(C(F)(F)P(=O)(O)O)ccc2s1)C(=O)N1C[C@@H](OCC(=O)NCCCCC#Cc2ccc3c(c2)C(=O)N(C2CCC(=O)NC2=O)C3=O)C[C@H]1C(=O)N1CCC[C@H](c2ccccc2)C1 (stereo partly drawn) [Compound 500, ((2-(((2S)-1-((2S,4S)-4-(2-((6-(2-(2,6-dioxopiperidin-3-yl)-1,3-dioxoisoindolin-5-yl)hex-5-yn-1-yl)amino)-2-oxoethoxy)-2-((R)-3-phenylpiperidine-1-carbonyl)pyrrolidin-1-yl)-3,3-dimethyl-1-oxobutan-2-yl)carbamoyl)benzo[b]thiophen-5-yl)difluoromethyl)phosphonic acid] | > 10 µM |
| CC(C)(C)[C@H](NC(=O)c1cc2cc(C(F)(F)P(=O)(O)O)ccc2s1)C(=O)N1Cc2cc(OCC(=O)NCCCCC#Cc3ccc4c(c3)C(=O)N(C3CCC(=O)NC3=O)C4=O)ccc2C[C@H]1C(=O)N1CCC[C@H](c2ccccc2)C1 (stereo partly drawn) [Compound 556, ((2-(((2S)-1-((3S)-7-(2-((6-(2-(2,6-dioxopiperidin-3-yl)-1,3-dioxoisoindolin-5-yl)hex-5-yn-1-yl)amino)-2-oxoethoxy)-3-((R)-3-phenylpiperidine-1-carbonyl)-3,4-dihydroisoquinolin-2(1H)-yl)-3,3-dimethyl-1-oxobutan-2-yl)carbamoyl)benzo[b]thiophen-5-yl)difluoromethyl)phosphonic acid] | > 10 µM |
| CC(C)(C)[C@H](NC(=O)c1cc2cc(C(F)(F)P(=O)(O)O)ccc2s1)C(=O)N1Cc2cc(OCC(=O)NCCCCCCCCCC#Cc3cccc4c3C(=O)N(C3CCC(=O)NC3=O)C4=O)ccc2C[C@H]1C(=O)N1CCC[C@H](c2ccccc2)C1 (stereo partly drawn) [Compound 561, ((2-(((2S)-1-((3S)-7-(2-((11-(2-(2,6-dioxopiperidin-3-yl)-1,3-dioxoisoindolin-4-yl)undec-10-yn-1-yl)amino)-2-oxoethoxy)-3-((R)-3-phenylpiperidine-1-carbonyl)-3,4-dihydroisoquinolin-2(1H)-yl)-3,3-dimethyl-1-oxobutan-2-yl)carbamoyl)benzo[b]thiophen-5-yl)difluoromethyl)phosphonic acid] | > 10 µM |
| CC(C)(C)[C@H](NC(=O)c1cc2cc(C(F)(F)P(=O)(O)O)ccc2s1)C(=O)N1C[C@@H](OCCCCC#Cc2cccc3c2CN(C2CCC(=O)NC2=O)C3=O)C[C@H]1C(=O)N1CCO[C@H](c2ccccc2)C1 (stereo partly drawn) [Compound 594, ((2-(((2S)-1-((2S,4S)-4-((6-(2-(2,6-dioxopiperidin-3-yl)-1-oxoisoindolin-4-yl)hex-5-yn-1-yl)oxy)-2-((R)-2-phenylmorpholine-4-carbonyl)pyrrolidin-1-yl)-3,3-dimethyl-1-oxobutan-2-yl)carbamoyl)benzo[b]thiophen-5-yl)difluoromethyl)phosphonic acid] | < 0.1 µM |
| CC(C)(C)[C@H](NC(=O)c1cc2cc(C(F)(F)P(=O)(O)O)ccc2s1)C(=O)N1C[C@@H](OCC(=O)NCCC#Cc2ccc3c(c2)C(=O)N(C2CCC(=O)NC2=O)C3=O)C[C@H]1C(=O)N1CCC[C@H](c2ccccc2)C1 (stereo partly drawn) [Compound 496, ((2-(((2S)-1-((2S,4S)-4-(2-((4-(2-(2,6-dioxopiperidin-3-yl)-1,3-dioxoisoindolin-5-yl)but-3-yn-1-yl)amino)-2-oxoethoxy)-2-((R)-3-phenylpiperidine-1-carbonyl)pyrrolidin-1-yl)-3,3-dimethyl-1-oxobutan-2-yl)carbamoyl)benzo[b]thiophen-5-yl)difluoromethyl)phosphonic acid] | > 10 µM |
| CC(C)(C)[C@H](NC(=O)c1cc2cc(C(F)(F)P(=O)(O)O)ccc2s1)C(=O)N1C[C@@H](OCC(=O)NCCCCCCCCCC#Cc2ccc3c(c2)C(=O)N(C2CCC(=O)NC2=O)C3=O)C[C@H]1C(=O)N1CCO[C@H](c2ccccc2)C1 (stereo partly drawn) [Compound 492, ((2-(((2S)-1-((2S,4S)-4-(2-((11-(2-(2,6-dioxopiperidin-3-yl)-1,3-dioxoisoindolin-5-yl)undec-10-yn-1-yl)amino)-2-oxoethoxy)-2-((R)-2-phenylmorpholine-4-carbonyl)pyrrolidin-1-yl)-3,3-dimethyl-1-oxobutan-2-yl)carbamoyl)benzo[b]thiophen-5-yl)difluoromethyl)phosphonic acid] | > 10 µM |
| CC(C)(C)[C@H](NC(=O)c1cc2cc(C(F)(F)P(=O)(O)O)ccc2s1)C(=O)N1CCN(C(=O)CC(=O)NCC#Cc2ccc3c(c2)C(=O)N(C2CCC(=O)NC2=O)C3=O)C[C@H]1C(=O)N1CCO[C@H](c2ccccc2)C1 (stereo partly drawn) [Compound 508, ((2-(((2S)-1-((2S)-4-(3-((3-(2-(2,6-dioxopiperidin-3-yl)-1,3-dioxoisoindolin-5-yl)prop-2-yn-1-yl)amino)-3-oxopropanoyl)-2-((R)-2-phenylmorpholine-4-carbonyl)piperazin-1-yl)-3,3-dimethyl-1-oxobutan-2-yl)carbamoyl)benzo[b]thiophen-5-yl)difluoromethyl)phosphonic acid] | > 10 µM |
| CC(C)(C)[C@H](NC(=O)c1cc2cc(C(F)(F)P(=O)(O)O)ccc2s1)C(=O)N1CCN(C(=O)CC(=O)NCCCCC#Cc2ccc3c(c2)C(=O)N(C2CCC(=O)NC2=O)C3=O)C[C@H]1C(=O)N1CCO[C@H](c2ccccc2)C1 (stereo partly drawn) [Compound 514, ((2-(((2S)-1-((2S)-4-(3-((6-(2-(2,6-dioxopiperidin-3-yl)-1,3-dioxoisoindolin-5-yl)hex-5-yn-1-yl)amino)-3-oxopropanoyl)-2-((R)-2-phenylmorpholine-4-carbonyl)piperazin-1-yl)-3,3-dimethyl-1-oxobutan-2-yl)carbamoyl)benzo[b]thiophen-5-yl)difluoromethyl)phosphonic acid] | > 10 µM |

same assay, conditions: MOLM-16 cells, numeric bound, read-out: DC50 S6 MOLM-16

| SMILES | DC50 |
| --- | --- |
| CC(C)(C)[C@H](NC(=O)c1cc2cc(C(F)(F)P(=O)(O)O)ccc2s1)C(=O)N1CCN(C(=O)CCCCCC#Cc2ccc3c(c2)CN(C2CCC(=O)NC2=O)C3=O)C[C@H]1C(=O)N1CCO[C@H](c2ccccc2)C1 (stereo partly drawn) [Compound 596, ((2-(((2S)-1-((2S)-4-(8-(2-(2,6-dioxopiperidin-3-yl)-1-oxoisoindolin-5-yl)oct-7-ynoyl)-2-((R)-2-phenylmorpholine-4-carbonyl)piperazin-1-yl)-3,3-dimethyl-1-oxobutan-2-yl)carbamoyl)benzo[b]thiophen-5-yl)difluoromethyl)phosphonic acid] | > 0.3 µM |

same assay, conditions: read-out: DC50 S6 MB231, MB231 cells

| SMILES | DC50 |
| --- | --- |
| Cc1ncsc1-c1ccc(CNC(=O)[C@@H]2C[C@@H](O)CN2C(=O)[C@@H](NC(=O)CCCCCCCCCNC(=O)CCN(C(=O)[C@@H]2CCCN2C(=O)[C@@H](NC(=O)c2cc3cc(C(F)(F)P(=O)(O)O)ccc3s2)C(C)(C)C)c2ccc(Br)cc2)C(C)(C)C)cc1 [Compound 396] ({Benzothienyl2CO(5-CF2PO3H2)}-[Tle]P[βAla(N-(4-Br-phenyl))][NH(CH2)9CO][Tle][Hyp]-{NHBn(4-(4-Me-thiazol-5-yl))}) | > 10 µM |
